Values quoted from earlier work in patent US7037910B2, “Azabicyclic heterocycles as cannabinoid receptor modulators” (Bristol-Myers Squibb, priority 2003, dated 2006).
Like-named read-outs stand apart in the source and are kept apart here.

Tests used:
[1] = chronic administration for two weeks
[2] = human subjects, 16 week trial period

| Compound | body weight [1] | body weight [2] |
| --- | --- | --- |
| Cc1c(C(=O)NN2CCCCC2)nn(-c2ccc(Cl)cc2Cl)c1-c1ccc(I)cc1 [AM-251] | substantial body weight reduction |  |
| Cc1c(C(=O)NN2CCCCC2)nn(-c2ccc(Cl)cc2Cl)c1-c1ccc(Cl)cc1 [SR-141716] |  | dose-dependently reduced body weight |
